Results reported in PubChem BioAssay (NCI).
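Where inhibition never reached the appropriate level, the endpoint shown equals the highest concentration tested. Otherwise, values were interpolated linearly from a five-concentration, 48-hour dose response in 96-well plates. GI50 = concentration required for 50% inhibition of growth. TGI: concentration producing complete growth inhibition.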

Columns and labels:
Test in all cases: inhibition of tumour cell growth, NCI panel, 48 h
RPMI-8226 leukemia = system: RPMI-8226 leukemia
OVCAR-5 ovarian = system: OVCAR-5 ovarian
LOX IMVI melanoma = system: LOX IMVI melanoma
SK-OV-3 ovarian = system: SK-OV-3 ovarian
MCF7 breast = system: MCF7 breast
A549 NSCLC = system: A549 NSCLC
UACC-257 melanoma = system: UACC-257 melanoma
DU-145 prostate = system: DU-145 prostate
CAKI-1 renal = system: CAKI-1 renal
HL-60(TB) leukemia = system: HL-60(TB) leukemia
RXF 393 renal = system: RXF 393 renal

Row | Compound | TGI (RPMI-8226 leukemia) [µM] | TGI (OVCAR-5 ovarian) [µM] | TGI (LOX IMVI melanoma) [µM] | TGI (SK-OV-3 ovarian) [µM] | TGI (MCF7 breast) [µM] | TGI (A549 NSCLC) [µM] | TGI (UACC-257 melanoma) [µM] | TGI (DU-145 prostate) [µM] | TGI (CAKI-1 renal) [µM] | TGI (HL-60(TB) leukemia) [µM] | TGI (RXF 393 renal) [µM] | GI50 (RPMI-8226 leukemia) [µM] | GI50 (OVCAR-5 ovarian) [µM] | GI50 (LOX IMVI melanoma) [µM] | GI50 (SK-OV-3 ovarian) [µM] | GI50 (MCF7 breast) [µM] | GI50 (DU-145 prostate) [µM] | GI50 (CAKI-1 renal) [µM] | GI50 (HL-60(TB) leukemia) [µM]
1 | Cc1nc2ccc(N=Nc3c(C)noc3C)cc2[nH]1 | 92.4 | > 100 | 39.2 | 56.7 | 84 | > 100 | > 100 | > 100 | 86.8 | 61.6 | 52.4 | – | – | – | – | – | – | – | –
2 | NCCc1ccc(S(=O)(=O)O)cc1[N+](=O)[O-] | > 100 | > 100 | > 100 | > 100 | > 100 | > 100 | > 100 | > 100 | > 100 | > 100 | > 100 | – | – | – | – | – | – | – | –
3 | COc1ccc(/C=C2\C[C@H]3[C@@H]4CC=C5C[C@@H](O)CC[C@]5(C)[C@H]4CC[C@]3(C)\C2=N\O)cc1 | 21.9 | – | 33.3 | > 100 | > 100 | > 100 | 45.7 | 71.5 | 19.3 | 24.8 | > 100 | – | – | – | – | – | – | – | –
4 | CC1C(OS(=O)(=O)c2ccc3[nH]c(=S)sc3c2)CC2C3(C)CCC2(C(C)C(=O)O)C(O)C13 (centres undefined) | 40.8 | 93.3 | – | > 100 | > 100 | > 100 | > 100 | 40.4 | 64.3 | 58 | 61.2 | – | – | – | – | – | – | – | –
5 | Cc1nc2ccc(S(=O)(=O)O)cc2c(=O)n1-c1ccc(C(=O)NN2C(=O)C(Cl)C2c2cccs2)cc1 (centres undefined) | > 100 | > 100 | > 100 | > 100 | > 100 | > 100 | > 100 | > 100 | > 100 | 51.8 | > 100 | – | – | – | – | – | – | – | –
6 | CC(C)=CCC[C@@H](C)C1=C(N)C(O)=C(C)C(=O)C1=O | > 75 | > 75 | > 75 | > 75 | > 75 | > 75 | > 75 | > 75 | > 75 | 39.5 | > 75 | – | – | – | – | – | – | – | –
7 | CC(C)(C)n1c(=O)n2c(-c3ccccc3)c(-c3ccccc3)n2c1=O | 61.1 | > 100 | > 100 | > 100 | > 100 | > 100 | > 100 | > 100 | > 100 | > 100 | > 100 | – | – | – | – | – | – | – | –
8 | O=[N+]([O-])c1ccc2c3c1[C@@H]1O[C@@H]1c1cccc(c1-3)[C@@H]1O[C@H]21 | > 100 | 31.3 | 3.44 | 44.3 | > 100 | 31 | > 25.1 | 8.72 | 3.2 | 7.58 | 16.8 | – | – | – | – | – | – | – | –
9 | CCOC(=O)c1c(Cl)c2c(n1Cc1ccccc1)-c1oncc1CCC2 | > 100 | > 100 | > 100 | > 100 | > 100 | – | – | > 100 | > 100 | > 100 | – | 3.27 | > 100 | 5.26 | > 100 | 3.21 | > 100 | 3.51 | 3.32
10 | O=C1CSC(c2cc3cc(Br)ccc3nc2Cl)N1c1ccc(Cl)cc1 (centres undefined) | > 100 | > 100 | 33.7 | > 100 | 67.6 | > 100 | 42.5 | > 100 | > 100 | 55.7 | 60.9 | – | – | – | – | – | – | – | –
11 | CCc1nc(N)nc(N)c1-c1ccc(N2CCOCC2)c(N=[N+]=[N-])c1 | > 100 | > 100 | > 100 | > 100 | > 100 | > 100 | > 100 | > 100 | > 100 | > 79.2 | > 100 | – | – | – | – | – | – | – | –
12 | O=C(OC1OC2COC(=O)c3cc(O)c(O)c(O)c3-c3c(cc(O)c(O)c3O)C(=O)OC3C2OC(=O)[C@@]24CC(=O)[C@@](O)(OC25C(=O)O[C@H]2[C@@H](O)CO[C@@]25O)C2(O)Oc5c(O)c(O)cc(c5C24)C(=O)OC13)c1cc(O)c(O)c(O)c1 (some centres undefined) | > 100 | > 100 | 25.1 | > 100 | 29.1 | > 100 | > 100 | > 100 | 32.1 | 92.3 | > 100 | – | – | – | – | – | – | – | –
13 | C[C@H]1CCC/C=C/[C@@H]2C[C@H](OC(=O)CN(C)C)C[C@H]2[C@H](O)/C=C/C(=O)O1 | > 26.6 | 5.68 | 0.219 | > 100 | 4.31 | > 100 | 27.8 | > 33.8 | > 44.9 | 6.2 | 0.155 | – | – | – | – | – | – | – | –
14 | C=C1CC[C@@H]2[C@](C)(COC(=O)CCC(=O)OC)CCC[C@@]2(C)[C@@H]1CCC1=CC(=O)OC1 | 34.2 | > 100 | > 100 | > 100 | > 100 | > 100 | > 100 | > 100 | 81.3 | 51.2 | – | – | – | – | – | – | – | – | –
15 | O=C(Nc1ccc(Cl)cc1Cl)C1C(=O)OC2(CCCCC2)OC1=O | 35.7 | 28 | 20.4 | 32.2 | 29.6 | 28.8 | 30.1 | 28.7 | 22.5 | 29.9 | 22 | – | – | – | – | – | – | – | –
16 | O=C1C(Cl)=CC2(C=C1Cl)CCN=c1c(O)c3c(c(O)c12)=NC=N3 | 80.9 | > 100 | 50.4 | > 100 | 48.9 | > 100 | 52.4 | > 100 | > 100 | 53.6 | 70.7 | – | – | – | – | – | – | – | –
17 | COC(=O)C1=C(OC)C(=P2(c3ccccc3)CC(c3ccccc3)=C2c2ccccc2)C(C(=O)OC)=C1C(=O)OC (centres undefined) | > 31.2 | > 100 | > 100 | > 100 | > 82.6 | > 100 | > 100 | > 100 | > 93.6 | 3.22 | > 100 | – | – | – | – | – | – | – | –
